For data set [1] the following is noted: NCI/DTP data; cited from earlier work.
For data set [2], the system named is panel of 60 human cancer cell lines. Put plainly: NCI/DTP in vitro anticancer screen, 60 cell lines. Format: cell-based. To be noted: NCI panel of 60 human cancer cell lines, value per compound (FIG. 10A). The method, then: The twenty-three compounds of Formula I shown below were evaluated for their antiproliferative effects in a panel of 60 human cancer cell lines as part of the in vitro anticancer screening services provided by the DTP (Developmental Therapeutics Program) of the US National Cancer Institute (NCI) U.S. National Cancer Institute (NCI) of the National Institutes of Health (NIH) in […], Md.
The NCI conducts a standard 48/72 hour 60 cell line assay and an in vitro time course assay as described in Alley et al. (Cancer Res (1988) 48:589). In the standard 60 cell line assay, a minimum of 5 concentrations of the test compound are tested at 10-fold dilutions against 60 cell lines and cell growth is assayed at 48 and 72 hours using a sulphorhodamine B assay. For the time course analysis, tumour cells are treated with the test compound at various time points, then washed and grown in medium free of the test compound until the end of the experiment at 144 hrs. This assay employs 20% FBS to better approximate the minimum c×t (concentrations and times) test compound exposure conditions that are required to achieve activity in vivo. Cell growth is quantified by an MTT assay (similar to the XTT assay described above) and the concentration of the test compound required for growth inhibition is determined. […]

For data set [3], the system named is Saccharmyces cerevisiae strains that have mutations in genes related to cell cycle control and DNA repair damage. The following applies: panel of six yeast strains, single concentration; NCI/DTP data; cited from earlier work.
The test system of data set [4] is HT29 colon adenocarcinoma cells. Put plainly: morphological changes (vacuoles), HT29. To be noted: treatment for 24 hours. Format: cell-based, human. From the text: These vacuoles are not formed in DMSO- or doxorubicin-treated cells. Moreover, the nuclear membrane is no longer evident in the phase-contrast images of cells treated with compound 45, even though the nucleus is still intact, as shown by DAPI staining.

The subject of data set [5] is human colon carcinoma cells (HT-29). Put plainly: XTT cell proliferation assay, HT-29 cells, 48 h. The data set is classed as cell-based. To be noted: read-out: % Survival; for viability at 25 µM: 25 μM compound; for viability at 100 µM: 100 μM compound. As to the method:
(§1) Selected compounds of Formula I were tested for anti-cancer activity in vitro using a human colon carcinoma cells (HT-29) and human non-small cell lung cancer cells (H460). The cells were maintained in α-MEM medium (Wisent, St-Bruno, Qc) supplemented with 10% FBS, and grown at 37° C. in an atmosphere of 5% CO2. Cells were transferred onto 150 mm tissue culture plates and grown until sub-confluency (70-80%) prior to their use.
(§2) The anti-cancer activity in vitro was evaluated by a cell proliferation assay based on the ability of live cells to reduce the tetrazolium salt XTT to orange coloured compounds of formazan (XTT cell proliferation kit II, Roche Applied Science, Montreal, QC).
(§3) Approximately 4×10^3 colon cancer cells (HT-29) or 2×10^3 non-small cell lung cancer cells (NCI-H460) in 100 μl of complete culture medium were plated onto 96-well microtiter plates and incubated overnight at 37° C. The medium was then removed by inverting the plate and patting on a sterile absorbent cloth. Fifty μl of medium containing the test compound at either 25 or 100 μM, were added to the wells containing cells and incubated at 37° C. in an atmosphere of 5% CO2 for 48 h. Following incubation, 25 μl of an XTT reaction mixture (XTT at a final concentration of 0.3 mg/ml) were added to each well and the plates were incubated for a further 4 h. The absorbance of each sample was then determined at a wavelength of 490 nm/650 nm as reference. Each compound was tested in duplicate and the results are reported as averages.
Background: Formazan colour is commonly taken as a measure of viable cells.

Data set [6] deals with human non-small cell lung cancer cells (H460). Put plainly: XTT cell proliferation assay, H460 cells, 48 h. Format: cell-based. To be noted: NCI-H460 cells, 48 h, XTT, read-out: % Survival; for viability at 25 µM: 25 μM compound; for viability at 100 µM: 100 μM compound. As to the method:
as §1, §2, §3

With `c1ccc2c(-c3nc4ccccc4[nH]3)cccc2c1` [Compound 144033], in data set [1], the “activity in the In Vivo Anticancer Drug Screen” value is given as “None of these three compounds showed any activity”.

A word on the melting point: it is the temperature of the solid-liquid transition. `c1ccc(-c2[nH]c3ccccc3c2-c2nc3c4ccccc4c4ccccc4c3[nH]2)cc1` registered a melting point of 240 to 242 °C.

In turn, `Oc1ccc(-c2[nH]c(-c3c[nH]c4ccc(Br)cc34)nc2-c2ccccc2)cc1O` [Compound 140] gave a melting point of 210 to 215 °C.

`COc1ccc(-c2nc(-c3c[nH]c4ccc(Br)cc34)[nH]c2-c2ccccc2)cc1OC` [Compound 96] displayed a melting point of 265 to 266 °C.

For `Cc1[nH]c2ccccc2c1-c1nc2c3cccnc3c3ncccc3c2[nH]1` [Compound 90], the “GI50 (growth inhibition by 50%)” value in data set [2] was “most effective compound”.

Regarding `Cc1[nH]c2ccccc2c1-c1nc2c3ccccc3c3ccc([N+](=O)[O-])cc3c2[nH]1`, the melting point lay within 335 to 336 °C.

`Brc1ccc2[nH]cc(-c3nc(-c4cccc5ccccc45)c(-c4ccccc4)[nH]3)c2c1` [Compound 181] yielded a melting point of 308 to 310 °C.

`Cc1[nH]c2ccccc2c1-c1nc(-c2cccc3ccccc23)c(-c2ccccc2)[nH]1` [Compound 180] gave a melting point of 239 to 240 °C.

For the compound `Cc1ccccc1-c1nc2c3ccccc3c3ccccc3c2[nH]1` [NCI #338970], the “activity in the In Vivo Anticancer Drug Screen” value in data set [1] was “None of these three compounds showed any activity”. For the same compound, the “activity in Stage0 testing in the Yeast Anticancer Drug Screen” value in data set [3] is on record as “active”.

As to `COc1cccc2c1C(=O)c1c(O)c3c(c(O)c1C2=O)C[C@@](O)(C(=O)CO)C[C@@H]3O[C@H]1C[C@H](N)[C@H](O)[C@H](C)O1` [doxorubicin, reference compound], the formation of vacuoles result in data set [4] is listed as “not formed”.

The compound `Nc1ccc2c3ccccc3c3nc(-c4c[nH]c5ccc(Br)cc45)[nH]c3c2c1` showed a melting point of 300 to 303 °C.

With `Cc1[nH]c2ccccc2c1-c1nc(-c2ccc(Cl)cc2)c(-c2ccc(Cl)cc2)[nH]1` [Compound 19], the melting point fell in the range of 165 to 167 °C. In data set [5], the viability at 25 µM was determined as 106% and the viability at 100 µM turned out to be 37.1%. In data set [6], the viability at 25 µM is 89.2% and the viability at 100 µM came to 27.3%.

Take `Brc1ccc2[nH]cc(-c3nc(-c4ccc(-c5ccccc5)cc4)c(-c4ccc(-c5ccccc5)cc4)[nH]3)c2c1` [Compound 41]: the melting point lay within 155 to 158 °C.

`O=[N+]([O-])c1ccc2c3ccccc3c3nc(-c4c[nH]c5ccccc45)[nH]c3c2c1` showed a melting point of 365 to 366 °C.

With `CN(C)c1ccc(-c2nc3c4ccccc4c4ccccc4c3[nH]2)cc1` [NCI #322334], the “activity in the In Vivo Anticancer Drug Screen” value in data set [1] is recorded as “None of these three compounds showed any activity”.

`Brc1ccc2[nH]cc(C=Nc3ccc4c5ccccc5c5nc(-c6c[nH]c7ccc(Br)cc67)[nH]c5c4c3)c2c1` showed a melting point of 236 to 237 °C.

`Nc1ccc(-c2[nH]c(-c3c[nH]c4ccccc34)nc2-c2ccccc2)cc1` [Compound 182]: the melting point lay within 264 to 265 °C.

In turn, `COc1ccc(-c2nc(-c3c[nH]c4ccccc34)[nH]c2-c2ccccc2)cc1OC` [Compound 152] yielded a melting point of 258 to 259 °C.

On to `CC(=O)n1c(-c2c(C)n(C(C)=O)c3ccccc23)nc(-c2ccccc2)c1-c1ccccc1` [Compound 5], for which, in data set [5], the viability at 25 µM turned out to be 111% and the viability at 100 µM was found to be 111%. Further, in data set [6], the viability at 25 µM stood at 102% and the viability at 100 µM worked out at 106%.

On to `Clc1ccc(-c2nc(-c3c[nH]c4ccc(Br)cc34)[nH]c2-c2ccc(Cl)cc2)cc1` [Compound 20], for which, in data set [5], the viability at 25 µM came to 100% and the viability at 100 µM was determined as 28.1%. For the same compound, in data set [6], the viability at 25 µM turned out to be 98.6% and the viability at 100 µM was 82.1%.

With `Brc1ccc(-c2[nH]c(-c3c[nH]c4ccc(Br)cc34)nc2-c2ccccc2)cc1` [Compound 43], in data set [5], the viability at 25 µM turned out to be 28% and the viability at 100 µM worked out at 5.7%. In addition, in data set [6], the viability at 25 µM came out at 18.8% and the viability at 100 µM is 3%.

Values taken from patent US10080739B2, “Aryl imidazoles and their use as anti-cancer agents” (Aptose Biosciences Inc., priority 2003, dated 2018).
